Source: PubChem BioAssay (NCI)
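Test compounds were applied to cells in 96-well plates for 48 hours at 5 doses. TGI is the concentration that stops growth completely.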

Legend:
Assay in all cases: growth of human tumour cells (NCI), 48 h
CCRF-CEM leukemia = test system: CCRF-CEM leukemia
OVCAR-3 ovarian = test system: OVCAR-3 ovarian
MDA-MB-435 = test system: MDA-MB-435
SW-620 colon = test system: SW-620 colon
HOP-62 NSCLC = test system: HOP-62 NSCLC
UACC-257 melanoma = test system: UACC-257 melanoma
PC-3 prostate = test system: PC-3 prostate
MALME-3M melanoma = test system: MALME-3M melanoma
HCC-2998 colon = test system: HCC-2998 colon
LOX IMVI melanoma = test system: LOX IMVI melanoma
HL-60(TB) leukemia = test system: HL-60(TB) leukemia
MOLT-4 leukemia = test system: MOLT-4 leukemia
ACHN renal = test system: ACHN renal
IGROV1 ovarian = test system: IGROV1 ovarian
SF-295 CNS = test system: SF-295 CNS
HT29 colon = test system: HT29 colon
NCI-H522 lung = test system: NCI-H522 lung
SK-OV-3 ovarian = test system: SK-OV-3 ovarian
UACC-62 melanoma = test system: UACC-62 melanoma
OVCAR-8 ovarian = test system: OVCAR-8 ovarian
SN12C renal = test system: SN12C renal
K-562 leukemia = test system: K-562 leukemia
SF-268 CNS = test system: SF-268 CNS
UO-31 renal = test system: UO-31 renal
OVCAR-4 ovarian = test system: OVCAR-4 ovarian
U251 CNS = test system: U251 CNS
RPMI-8226 leukemia = test system: RPMI-8226 leukemia
NCI-H23 lung = test system: NCI-H23 lung
NCI-H460 lung = test system: NCI-H460 lung
A549 NSCLC = test system: A549 NSCLC
HS 578T breast = test system: HS 578T breast
CAKI-1 renal = test system: CAKI-1 renal
MDA-MB-231 breast = test system: MDA-MB-231 breast
M14 melanoma = test system: M14 melanoma
SK-MEL-2 melanoma = test system: SK-MEL-2 melanoma
NCI/ADR-RES ovarian = test system: NCI/ADR-RES ovarian
HCT-116 colon = test system: HCT-116 colon
HOP-92 NSCLC = test system: HOP-92 NSCLC
KM12 colon = test system: KM12 colon
SR leukemia = test system: SR leukemia
MDA-N = test system: MDA-N
A498 renal = test system: A498 renal
SNB-19 CNS = test system: SNB-19 CNS
DU-145 prostate = test system: DU-145 prostate
TK-10 renal = test system: TK-10 renal
EKVX NSCLC = test system: EKVX NSCLC
MCF7 breast = test system: MCF7 breast
786-0 renal = test system: 786-0 renal
SK-MEL-28 melanoma = test system: SK-MEL-28 melanoma
HCT-15 colon = test system: HCT-15 colon
BT-549 breast = test system: BT-549 breast
OVCAR-5 ovarian = test system: OVCAR-5 ovarian
NCI-H226 lung = test system: NCI-H226 lung
SF-539 CNS = test system: SF-539 CNS
SNB-75 CNS = test system: SNB-75 CNS
RXF 393 renal = test system: RXF 393 renal
COLO 205 colon = test system: COLO 205 colon
SK-MEL-5 melanoma = test system: SK-MEL-5 melanoma

SMILES: COc1nc(SC)nc2c1C(O)n1c(nc3ccccc31)S2 (stereo not drawn)
- TGI (CCRF-CEM leukemia): 22.3 µM
- TGI (OVCAR-3 ovarian): 85.7 µM
- TGI (MDA-MB-435): > 100 µM
- TGI (SW-620 colon): 47.7 µM
- TGI (HOP-62 NSCLC): 37.4 µM
- TGI (UACC-257 melanoma): > 100 µM
- TGI (PC-3 prostate): > 100 µM
- TGI (MALME-3M melanoma): > 100 µM
- TGI (HCC-2998 colon): > 100 µM
- TGI (LOX IMVI melanoma): > 100 µM
- TGI (HL-60(TB) leukemia): 60.5 µM
- TGI (MOLT-4 leukemia): > 100 µM
- TGI (ACHN renal): 39.9 µM
- TGI (IGROV1 ovarian): > 100 µM
- TGI (SF-295 CNS): 59.6 µM
- TGI (HT29 colon): > 100 µM
- TGI (NCI-H522 lung): 69.1 µM
- TGI (SK-OV-3 ovarian): 67.2 µM
- TGI (UACC-62 melanoma): 44.7 µM
- TGI (OVCAR-8 ovarian): 80.9 µM
- TGI (SN12C renal): > 100 µM
- TGI (K-562 leukemia): > 100 µM
- TGI (SF-268 CNS): > 100 µM
- TGI (UO-31 renal): 16.8 µM
- TGI (OVCAR-4 ovarian): 44.4 µM
- TGI (U251 CNS): 96.8 µM
- TGI (RPMI-8226 leukemia): > 100 µM
- TGI (NCI-H23 lung): 95.4 µM
- TGI (NCI-H460 lung): > 100 µM
- TGI (A549 NSCLC): > 100 µM
- TGI (HS 578T breast): 50.7 µM
- TGI (CAKI-1 renal): > 100 µM
- TGI (MDA-MB-231 breast): > 100 µM
- TGI (M14 melanoma): > 100 µM
- TGI (SK-MEL-2 melanoma): > 100 µM
- TGI (NCI/ADR-RES ovarian): 94.9 µM
- TGI (HCT-116 colon): 30.4 µM
- TGI (HOP-92 NSCLC): 61.9 µM
- TGI (KM12 colon): > 100 µM
- TGI (SR leukemia): > 100 µM
- TGI (MDA-N): > 100 µM
- TGI (A498 renal): 39.4 µM
- TGI (SNB-19 CNS): > 100 µM
- TGI (DU-145 prostate): > 100 µM
- TGI (TK-10 renal): 97.7 µM
- TGI (EKVX NSCLC): > 100 µM
- TGI (MCF7 breast): 91.2 µM
- TGI (786-0 renal): 24.6 µM
- TGI (SK-MEL-28 melanoma): > 100 µM
- TGI (HCT-15 colon): > 100 µM
- TGI (BT-549 breast): > 100 µM
- TGI (OVCAR-5 ovarian): > 100 µM

SMILES: O=C1C=CC2(C=C1)CCC(=O)O2
- TGI (CCRF-CEM leukemia): 25.3 µM
- TGI (NCI-H226 lung): > 100 µM
- TGI (OVCAR-3 ovarian): 28.9 µM
- TGI (SF-539 CNS): 76.8 µM
- TGI (MDA-MB-435): 29.6 µM
- TGI (SW-620 colon): 37.5 µM
- TGI (HOP-62 NSCLC): 38.2 µM
- TGI (UACC-257 melanoma): 80.2 µM
- TGI (SNB-75 CNS): 39.1 µM
- TGI (PC-3 prostate): 27.1 µM
- TGI (MALME-3M melanoma): 19.6 µM
- TGI (HCC-2998 colon): 27.2 µM
- TGI (LOX IMVI melanoma): 20.9 µM
- TGI (MOLT-4 leukemia): > 100 µM
- TGI (ACHN renal): 34.2 µM
- TGI (IGROV1 ovarian): 28.5 µM
- TGI (SF-295 CNS): 46.4 µM
- TGI (HT29 colon): > 100 µM
- TGI (NCI-H522 lung): 5.4 µM
- TGI (UACC-62 melanoma): 37.4 µM
- TGI (OVCAR-8 ovarian): > 100 µM
- TGI (SN12C renal): 34.5 µM
- TGI (K-562 leukemia): > 100 µM
- TGI (SF-268 CNS): 51.6 µM
- TGI (UO-31 renal): 31.2 µM
- TGI (OVCAR-4 ovarian): 29.9 µM
- TGI (U251 CNS): 23.1 µM
- TGI (RPMI-8226 leukemia): 23.7 µM
- TGI (NCI-H23 lung): 43.9 µM
- TGI (NCI-H460 lung): 30.7 µM
- TGI (A549 NSCLC): 44.1 µM
- TGI (HS 578T breast): > 100 µM
- TGI (CAKI-1 renal): 18.2 µM
- TGI (MDA-MB-231 breast): 23.9 µM
- TGI (M14 melanoma): > 100 µM
- TGI (SK-MEL-2 melanoma): 36.6 µM
- TGI (NCI/ADR-RES ovarian): > 100 µM
- TGI (HCT-116 colon): 28 µM
- TGI (HOP-92 NSCLC): 26.6 µM
- TGI (KM12 colon): 29.9 µM
- TGI (SR leukemia): > 100 µM
- TGI (RXF 393 renal): 28.3 µM
- TGI (MDA-N): > 100 µM
- TGI (A498 renal): > 100 µM
- TGI (SNB-19 CNS): 37.4 µM
- TGI (DU-145 prostate): 31.5 µM
- TGI (COLO 205 colon): 23.1 µM
- TGI (TK-10 renal): 24.2 µM
- TGI (EKVX NSCLC): 43.8 µM
- TGI (SK-MEL-5 melanoma): 29.8 µM
- TGI (MCF7 breast): 34.5 µM
- TGI (786-0 renal): 31 µM
- TGI (SK-MEL-28 melanoma): > 100 µM
- TGI (HCT-15 colon): 54.3 µM
- TGI (BT-549 breast): 46.3 µM
- TGI (OVCAR-5 ovarian): 46 µM
